Experimental data as given in article PMC6019134, “1,2,6-Thiadiazinones as Novel Narrow Spectrum Calcium/Calmodulin-Dependent Protein Kinase Kinase 2 (CaMKK2) Inhibitors” (Molecules : A Journal of Synthetic Chemistry and Natural …, 2018).

Legend:
Assay in all cases: DSF thermal shift, kinase panel
Format in all cases: binding
Settings in all cases: 10 μM compound
CSNK1G3 = target: T1, CSNK1G3 (Homo sapiens, UniProt Q9Y6M4)
T1 construct: purchased in-house (home-made panel, SGC-style construct names)
How it was run: (§1)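 Recombinant kinase (E. coli-expressed, His-tag removed by TEV, SEC-polished) at 1 µM in 100 mM K2HPO4 pH 7.5, 150 mM NaCl, 10% glycerol with dye, plus 10 µM compound. Heated 25 °C to 95 °C at 0.05 °C/s; dTm from Boltzmann fits versus 0.2% DMSO control.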

TTKA = target: T2, TTKA (Homo sapiens, UniProt P33981)
T2 construct: TEV-cleavable (cleaved yes); made in house; host or cells: E. coli
T2 sequence (P33981 1-857): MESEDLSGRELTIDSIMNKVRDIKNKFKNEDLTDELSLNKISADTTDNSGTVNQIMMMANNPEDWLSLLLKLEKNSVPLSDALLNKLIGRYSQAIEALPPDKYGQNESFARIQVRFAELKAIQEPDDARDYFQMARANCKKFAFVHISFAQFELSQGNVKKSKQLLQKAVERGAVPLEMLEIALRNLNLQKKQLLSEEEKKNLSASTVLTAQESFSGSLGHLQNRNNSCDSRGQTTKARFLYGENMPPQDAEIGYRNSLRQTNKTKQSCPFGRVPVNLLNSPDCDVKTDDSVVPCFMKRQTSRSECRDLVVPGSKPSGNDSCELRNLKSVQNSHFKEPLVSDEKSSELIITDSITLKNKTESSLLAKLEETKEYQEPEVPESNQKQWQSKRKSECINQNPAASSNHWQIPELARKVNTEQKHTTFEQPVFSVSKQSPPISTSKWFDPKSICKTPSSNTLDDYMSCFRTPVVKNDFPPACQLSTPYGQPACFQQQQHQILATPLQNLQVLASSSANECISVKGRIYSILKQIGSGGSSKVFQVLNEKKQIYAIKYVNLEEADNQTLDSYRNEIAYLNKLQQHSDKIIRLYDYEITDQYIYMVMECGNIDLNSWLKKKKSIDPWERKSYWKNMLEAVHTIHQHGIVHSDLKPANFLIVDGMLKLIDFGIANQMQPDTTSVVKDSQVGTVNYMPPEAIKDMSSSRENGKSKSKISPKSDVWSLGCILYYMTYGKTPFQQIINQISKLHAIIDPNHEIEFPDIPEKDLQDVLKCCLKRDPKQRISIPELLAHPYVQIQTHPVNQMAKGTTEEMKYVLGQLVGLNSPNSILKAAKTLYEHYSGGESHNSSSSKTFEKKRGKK
How it was run: as §1

PRPF4BA = target: T3, PRPF4BA (Homo sapiens, UniProt Q13523)
T3 construct: purchased in-house (home-made panel, SGC-style construct names)
How it was run: as §1

MAPK3A = target: T4, MAPK3A (Homo sapiens, UniProt P27361)
T4 construct: purchased in-house (home-made panel, SGC-style construct names)
How it was run: as §1

CLK1 = target: T5, CLK1 (Homo sapiens, UniProt P49759)
T5 construct: purchased in-house (home-made panel, SGC-style construct names)
How it was run: as §1

CAMK1G = target: T6, CAMK1G (Homo sapiens, UniProt Q96NX5)
T6 construct: purchased in-house (home-made panel, SGC-style construct names)
How it was run: as §1

DYRK2A = target: T7, DYRK2A (Homo sapiens, UniProt Q92630)
T7 construct: purchased in-house (home-made panel, SGC-style construct names)
T7 sequence (Q92630 1-601): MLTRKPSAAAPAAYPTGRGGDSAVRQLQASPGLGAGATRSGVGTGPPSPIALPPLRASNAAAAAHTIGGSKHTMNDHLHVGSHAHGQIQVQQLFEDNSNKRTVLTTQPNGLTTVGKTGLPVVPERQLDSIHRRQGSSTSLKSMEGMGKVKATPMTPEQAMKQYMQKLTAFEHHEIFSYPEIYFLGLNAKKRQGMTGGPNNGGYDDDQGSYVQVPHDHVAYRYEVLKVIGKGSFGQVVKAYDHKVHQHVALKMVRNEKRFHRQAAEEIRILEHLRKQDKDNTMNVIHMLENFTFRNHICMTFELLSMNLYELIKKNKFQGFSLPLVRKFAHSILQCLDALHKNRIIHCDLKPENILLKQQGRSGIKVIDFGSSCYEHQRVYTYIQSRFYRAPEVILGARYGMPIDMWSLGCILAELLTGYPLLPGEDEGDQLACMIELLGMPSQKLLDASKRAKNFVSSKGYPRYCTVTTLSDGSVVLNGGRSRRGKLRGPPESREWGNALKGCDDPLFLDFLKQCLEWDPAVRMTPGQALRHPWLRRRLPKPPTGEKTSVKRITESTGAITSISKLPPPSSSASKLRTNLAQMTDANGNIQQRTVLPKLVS
How it was run: as §1

STK38LA = target: T8, STK38LA (Homo sapiens, UniProt Q9Y2H1)
T8 construct: TEV-cleavable (cleaved yes); made in house; host or cells: E. coli
How it was run: as §1

PIM1A = target: T9, PIM1A (Homo sapiens, UniProt P11309)
T9 construct: purchased in-house (home-made panel, SGC-style construct names)
How it was run: as §1

SRPK2A = target: T10, SRPK2A (Homo sapiens, UniProt P78362)
T10 construct: purchased in-house (home-made panel, SGC-style construct names)
How it was run: as §1

T6 sequence (Q96NX5 whole entry): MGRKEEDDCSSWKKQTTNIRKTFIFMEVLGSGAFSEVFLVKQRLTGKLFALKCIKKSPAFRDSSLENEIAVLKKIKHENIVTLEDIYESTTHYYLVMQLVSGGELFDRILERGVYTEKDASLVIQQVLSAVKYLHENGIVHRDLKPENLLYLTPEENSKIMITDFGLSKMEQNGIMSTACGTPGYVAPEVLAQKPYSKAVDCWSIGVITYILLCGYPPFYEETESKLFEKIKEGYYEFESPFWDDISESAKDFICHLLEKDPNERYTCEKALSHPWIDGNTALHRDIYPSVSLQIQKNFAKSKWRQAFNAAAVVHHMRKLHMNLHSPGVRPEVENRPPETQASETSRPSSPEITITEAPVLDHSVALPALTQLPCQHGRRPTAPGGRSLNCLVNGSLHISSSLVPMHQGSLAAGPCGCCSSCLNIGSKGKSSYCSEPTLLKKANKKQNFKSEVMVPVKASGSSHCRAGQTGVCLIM
T5 sequence (P49759 whole entry): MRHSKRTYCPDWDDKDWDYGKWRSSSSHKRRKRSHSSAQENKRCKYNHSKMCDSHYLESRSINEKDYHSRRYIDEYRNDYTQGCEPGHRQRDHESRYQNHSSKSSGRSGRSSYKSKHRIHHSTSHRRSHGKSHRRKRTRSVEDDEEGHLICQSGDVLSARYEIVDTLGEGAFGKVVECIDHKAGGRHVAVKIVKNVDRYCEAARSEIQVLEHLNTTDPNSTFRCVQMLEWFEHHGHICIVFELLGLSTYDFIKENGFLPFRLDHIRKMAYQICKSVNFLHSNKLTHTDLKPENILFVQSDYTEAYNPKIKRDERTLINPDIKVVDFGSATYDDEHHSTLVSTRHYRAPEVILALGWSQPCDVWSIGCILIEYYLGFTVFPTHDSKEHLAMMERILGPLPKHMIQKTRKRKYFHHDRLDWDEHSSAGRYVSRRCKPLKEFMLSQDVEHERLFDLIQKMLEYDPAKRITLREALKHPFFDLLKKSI
T8 sequence (Q9Y2H1 whole entry): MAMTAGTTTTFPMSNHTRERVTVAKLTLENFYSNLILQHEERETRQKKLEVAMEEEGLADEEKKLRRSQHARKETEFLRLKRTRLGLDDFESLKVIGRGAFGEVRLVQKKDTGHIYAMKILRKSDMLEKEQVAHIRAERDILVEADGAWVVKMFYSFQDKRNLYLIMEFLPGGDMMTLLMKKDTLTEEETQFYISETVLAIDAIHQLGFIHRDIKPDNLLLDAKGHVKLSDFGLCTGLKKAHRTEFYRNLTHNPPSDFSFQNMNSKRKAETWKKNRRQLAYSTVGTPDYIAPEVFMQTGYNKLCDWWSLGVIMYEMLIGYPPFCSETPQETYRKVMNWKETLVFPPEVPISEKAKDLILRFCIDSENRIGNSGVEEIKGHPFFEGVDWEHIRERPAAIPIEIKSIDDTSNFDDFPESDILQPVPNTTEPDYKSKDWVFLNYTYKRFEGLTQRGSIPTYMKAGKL
T3 sequence (Q13523 whole entry): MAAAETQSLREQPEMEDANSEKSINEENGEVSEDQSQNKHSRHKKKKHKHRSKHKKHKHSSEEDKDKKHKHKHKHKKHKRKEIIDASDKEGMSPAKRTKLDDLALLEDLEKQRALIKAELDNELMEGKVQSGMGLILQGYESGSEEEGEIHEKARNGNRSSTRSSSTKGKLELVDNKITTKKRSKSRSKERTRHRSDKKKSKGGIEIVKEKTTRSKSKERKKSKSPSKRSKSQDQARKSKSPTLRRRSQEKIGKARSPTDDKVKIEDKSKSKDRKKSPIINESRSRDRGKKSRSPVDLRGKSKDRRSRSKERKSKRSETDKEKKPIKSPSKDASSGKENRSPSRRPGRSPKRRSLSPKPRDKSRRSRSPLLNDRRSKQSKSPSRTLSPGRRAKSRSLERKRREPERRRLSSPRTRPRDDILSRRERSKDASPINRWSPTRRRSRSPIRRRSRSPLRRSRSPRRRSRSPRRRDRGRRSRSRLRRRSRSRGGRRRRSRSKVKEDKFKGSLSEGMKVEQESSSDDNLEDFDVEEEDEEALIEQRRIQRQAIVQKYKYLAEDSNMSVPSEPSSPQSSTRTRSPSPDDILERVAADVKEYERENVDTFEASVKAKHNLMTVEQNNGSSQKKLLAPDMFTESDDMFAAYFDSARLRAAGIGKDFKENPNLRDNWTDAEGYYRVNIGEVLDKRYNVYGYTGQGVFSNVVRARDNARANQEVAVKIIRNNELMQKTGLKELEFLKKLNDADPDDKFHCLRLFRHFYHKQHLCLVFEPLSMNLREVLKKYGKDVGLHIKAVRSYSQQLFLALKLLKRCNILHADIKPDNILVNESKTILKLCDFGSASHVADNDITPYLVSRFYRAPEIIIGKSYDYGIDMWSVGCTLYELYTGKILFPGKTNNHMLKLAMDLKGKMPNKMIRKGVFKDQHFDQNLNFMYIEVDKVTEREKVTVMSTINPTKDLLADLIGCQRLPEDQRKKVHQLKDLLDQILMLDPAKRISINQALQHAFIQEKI
T10 sequence (P78362 whole entry): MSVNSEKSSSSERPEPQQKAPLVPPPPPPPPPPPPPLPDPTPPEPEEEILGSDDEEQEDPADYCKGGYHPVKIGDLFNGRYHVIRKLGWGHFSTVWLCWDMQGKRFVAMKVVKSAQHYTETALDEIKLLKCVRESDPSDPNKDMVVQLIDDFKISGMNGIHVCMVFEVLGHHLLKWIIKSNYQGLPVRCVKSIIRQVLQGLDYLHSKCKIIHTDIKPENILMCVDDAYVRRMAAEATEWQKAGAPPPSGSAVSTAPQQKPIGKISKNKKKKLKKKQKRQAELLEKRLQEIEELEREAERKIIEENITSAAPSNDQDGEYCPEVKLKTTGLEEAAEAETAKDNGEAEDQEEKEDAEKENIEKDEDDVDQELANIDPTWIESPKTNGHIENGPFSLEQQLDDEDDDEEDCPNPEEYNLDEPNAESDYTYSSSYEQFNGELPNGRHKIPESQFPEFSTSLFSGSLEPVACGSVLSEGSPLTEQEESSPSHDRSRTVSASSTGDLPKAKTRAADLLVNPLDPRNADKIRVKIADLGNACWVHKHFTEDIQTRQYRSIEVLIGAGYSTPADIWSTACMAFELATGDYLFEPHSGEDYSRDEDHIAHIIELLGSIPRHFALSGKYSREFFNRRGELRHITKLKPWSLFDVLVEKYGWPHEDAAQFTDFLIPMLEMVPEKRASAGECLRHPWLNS
T1 sequence (Q9Y6M4 whole entry): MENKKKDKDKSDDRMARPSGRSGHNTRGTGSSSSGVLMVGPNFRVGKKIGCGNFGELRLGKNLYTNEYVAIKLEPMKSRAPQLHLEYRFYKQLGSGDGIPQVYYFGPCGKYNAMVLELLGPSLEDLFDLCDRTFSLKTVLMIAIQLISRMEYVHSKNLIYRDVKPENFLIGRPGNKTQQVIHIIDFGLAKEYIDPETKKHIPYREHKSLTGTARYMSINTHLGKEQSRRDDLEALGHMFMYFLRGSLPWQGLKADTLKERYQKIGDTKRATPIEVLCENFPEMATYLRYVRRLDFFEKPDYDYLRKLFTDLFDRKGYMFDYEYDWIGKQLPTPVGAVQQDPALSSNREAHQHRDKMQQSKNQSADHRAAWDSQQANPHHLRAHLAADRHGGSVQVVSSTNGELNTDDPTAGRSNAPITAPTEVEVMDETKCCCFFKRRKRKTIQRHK
T4 sequence (P27361 whole entry): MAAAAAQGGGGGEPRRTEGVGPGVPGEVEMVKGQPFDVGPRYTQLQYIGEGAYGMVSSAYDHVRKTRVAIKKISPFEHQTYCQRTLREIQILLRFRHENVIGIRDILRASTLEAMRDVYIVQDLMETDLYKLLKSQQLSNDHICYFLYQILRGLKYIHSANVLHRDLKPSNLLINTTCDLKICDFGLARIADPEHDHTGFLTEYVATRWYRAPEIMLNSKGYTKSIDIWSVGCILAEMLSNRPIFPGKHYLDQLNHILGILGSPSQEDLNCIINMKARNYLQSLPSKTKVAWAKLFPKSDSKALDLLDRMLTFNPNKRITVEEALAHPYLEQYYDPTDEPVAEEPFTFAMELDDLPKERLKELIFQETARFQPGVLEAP
T9 sequence (P11309 whole entry): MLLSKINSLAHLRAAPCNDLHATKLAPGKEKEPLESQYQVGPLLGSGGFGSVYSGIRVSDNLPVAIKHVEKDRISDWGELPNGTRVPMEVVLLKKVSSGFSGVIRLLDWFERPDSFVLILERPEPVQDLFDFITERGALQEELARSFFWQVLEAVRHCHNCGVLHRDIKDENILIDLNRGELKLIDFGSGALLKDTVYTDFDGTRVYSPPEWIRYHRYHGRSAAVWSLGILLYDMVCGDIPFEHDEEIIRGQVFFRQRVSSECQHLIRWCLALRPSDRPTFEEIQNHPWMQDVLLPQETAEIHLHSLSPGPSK

| SMILES | ΔTm at 10 µM (CSNK1G3) | ΔTm at 10 µM (TTKA) | ΔTm at 10 µM (PRPF4BA) | ΔTm at 10 µM (MAPK3A) | ΔTm at 10 µM (CLK1) | ΔTm at 10 µM (CAMK1G) | ΔTm at 10 µM (DYRK2A) | ΔTm at 10 µM (STK38LA) | ΔTm at 10 µM (PIM1A) | ΔTm at 10 µM (SRPK2A) |
| --- | --- | --- | --- | --- | --- | --- | --- | --- | --- | --- |
| CNC(=O)c1ccccc1Nc1nsnc(Nc2ccc(N3CCOCC3)cc2)c1=O [Compound 5, N-Methyl-2-({5-[(4-morpholinophenyl)amino]-4-oxo-4H-1,2,6-thiadiazin-3-yl}amino)benzamide] | 0 °C | 0.1 °C | 0.1 °C | 0.1 °C | 1 °C | 0.1 °C | 0.1 °C | 0.3 °C | -0.2 °C | -0.1 °C |
| CNC(=O)c1ccccc1Nc1nsnc(Nc2cccc(CS(C)(=O)=O)c2)c1=O [Compound 4, N-Methyl-2-([5-({3-[(methylsulfonyl)methyl]phenyl}amino)-4-oxo-4H-1,2,6-thiadiazin-3-yl]-amino}-benzamide] | -0.1 °C | 0.3 °C | 0.1 °C | 0.1 °C | 0 °C | 0.2 °C | 0.1 °C | 0.4 °C | -0.7 °C | -0.3 °C |
| Cc1ccc(Nc2nsnc(Nc3cccc(C(N)=O)c3)c2=O)cc1O [Compound 1, 3-({5-[(3-Hydroxy-4-methylphenyl)amino]-4-oxo-4H-1,2,6-thiadiazin-3-yl}amino)benzamide] | 0 °C | 0.8 °C | 0.7 °C | 0.1 °C | 0.5 °C | 1.8 °C | 0.1 °C | 0.2 °C | 1 °C | -0.2 °C |
| Cc1ccc(Nc2nsnc(Nc3ccc(C(N)=O)cc3)c2=O)cc1O [Compound 2, 4-({5-[(3-Hydroxy-4-methylphenyl)amino]-4-oxo-4H-1,2,6-thiadiazin-3-yl}amino)benzamide] | 0.1 °C | 2.6 °C | 0.1 °C | 1.2 °C | 0.9 °C | 3.3 °C | 2.4 °C | 0.4 °C | 3.5 °C | 0.6 °C |
| Cc1ccc(Nc2nsnc(Nc3ccc4c(c3)CS(=O)(=O)C4)c2=O)cc1O [Compound 3, 3-[(2,2-Dioxido-1,3-dihydrobenzo[c]thiophen-5-yl)amino]-5-[(3-hydroxy-4-methylphenyl)amino]-4H-1,2,6-thiadiazin-4-one] | -0.2 °C | 2.1 °C | 0.6 °C | 0.4 °C | 2.1 °C | 3 °C | 0.7 °C | 0.8 °C | 4.1 °C | 0.1 °C |
